Residues, ends and D or L forms follow the SMILES beside them. *: point of attachment. Cbz = O=C(OCc1ccccc1)*; CH2F = FC*
What was measured:
[1] = molecular target: T1, Peregrin (Homo sapiens) (UniProt P55201); details: Compound concentration 20.0 uM
T1 sequence (whole entry): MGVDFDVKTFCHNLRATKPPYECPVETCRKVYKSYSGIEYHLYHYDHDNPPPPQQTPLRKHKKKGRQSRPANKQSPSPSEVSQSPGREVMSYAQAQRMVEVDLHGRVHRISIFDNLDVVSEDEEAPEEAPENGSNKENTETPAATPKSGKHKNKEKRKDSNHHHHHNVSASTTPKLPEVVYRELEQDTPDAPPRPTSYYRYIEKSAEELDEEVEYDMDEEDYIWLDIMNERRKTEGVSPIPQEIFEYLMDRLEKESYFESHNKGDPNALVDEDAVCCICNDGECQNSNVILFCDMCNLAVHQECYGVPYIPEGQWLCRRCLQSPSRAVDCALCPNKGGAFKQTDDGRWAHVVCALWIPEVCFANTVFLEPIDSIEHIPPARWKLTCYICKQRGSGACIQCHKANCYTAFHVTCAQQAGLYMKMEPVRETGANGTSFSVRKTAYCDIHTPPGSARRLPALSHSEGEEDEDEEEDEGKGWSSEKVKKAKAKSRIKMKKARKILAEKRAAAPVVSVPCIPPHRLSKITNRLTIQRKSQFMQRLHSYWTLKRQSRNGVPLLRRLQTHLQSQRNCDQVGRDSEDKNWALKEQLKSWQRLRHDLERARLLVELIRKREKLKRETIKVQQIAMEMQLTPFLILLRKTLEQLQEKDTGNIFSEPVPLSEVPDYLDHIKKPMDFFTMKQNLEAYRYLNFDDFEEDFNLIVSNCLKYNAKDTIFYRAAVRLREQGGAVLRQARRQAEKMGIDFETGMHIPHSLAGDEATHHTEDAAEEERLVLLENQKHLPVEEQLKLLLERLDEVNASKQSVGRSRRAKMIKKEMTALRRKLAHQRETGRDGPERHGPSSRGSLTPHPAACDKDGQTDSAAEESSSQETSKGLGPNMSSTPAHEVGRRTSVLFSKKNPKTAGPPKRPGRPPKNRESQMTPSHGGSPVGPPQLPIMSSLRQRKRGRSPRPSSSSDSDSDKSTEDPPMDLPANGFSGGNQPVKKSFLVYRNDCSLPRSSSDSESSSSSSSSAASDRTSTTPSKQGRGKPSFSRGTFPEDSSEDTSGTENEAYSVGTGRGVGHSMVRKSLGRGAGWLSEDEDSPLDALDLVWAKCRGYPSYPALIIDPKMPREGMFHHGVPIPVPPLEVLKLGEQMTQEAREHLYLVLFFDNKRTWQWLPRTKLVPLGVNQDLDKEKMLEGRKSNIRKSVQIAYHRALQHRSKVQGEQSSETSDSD

[2] = molecular target: Fibroblast growth factor receptor 2 (Homo sapiens) (UniProt P21802); details: Compound concentration 20.0 uM
Chain of Fibroblast growth factor receptor 2 (Homo sapiens) (P21802 22-821 limits assumed): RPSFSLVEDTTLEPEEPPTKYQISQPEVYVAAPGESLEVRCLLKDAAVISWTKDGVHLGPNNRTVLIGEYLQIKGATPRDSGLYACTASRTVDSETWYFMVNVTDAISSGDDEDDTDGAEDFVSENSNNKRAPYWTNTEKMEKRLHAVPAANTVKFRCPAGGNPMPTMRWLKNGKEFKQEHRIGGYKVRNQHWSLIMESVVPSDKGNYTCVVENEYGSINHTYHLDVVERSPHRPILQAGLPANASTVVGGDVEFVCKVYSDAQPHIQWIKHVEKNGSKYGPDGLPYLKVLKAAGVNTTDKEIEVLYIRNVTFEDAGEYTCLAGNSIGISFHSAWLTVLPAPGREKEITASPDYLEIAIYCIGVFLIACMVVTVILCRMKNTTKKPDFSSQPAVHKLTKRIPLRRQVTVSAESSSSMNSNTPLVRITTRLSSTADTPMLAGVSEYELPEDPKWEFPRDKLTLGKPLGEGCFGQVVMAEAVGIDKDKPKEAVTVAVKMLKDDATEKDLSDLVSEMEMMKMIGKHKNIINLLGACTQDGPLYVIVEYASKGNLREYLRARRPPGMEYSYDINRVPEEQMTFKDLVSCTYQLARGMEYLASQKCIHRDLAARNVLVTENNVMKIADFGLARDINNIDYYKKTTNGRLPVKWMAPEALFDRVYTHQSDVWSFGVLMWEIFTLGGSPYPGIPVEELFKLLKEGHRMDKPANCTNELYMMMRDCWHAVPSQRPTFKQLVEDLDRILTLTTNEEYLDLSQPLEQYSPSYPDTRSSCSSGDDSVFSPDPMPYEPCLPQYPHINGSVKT
Description: Thermal Shift Assay. Domain: start/stop: T457-E768

SMILES	ΔTm [1] [°C]	ΔTm [2] [°C]
CCOC(=O)c1ccc(-c2ccc(OC(=O)N(C)Cc3cccc(-c4ccncc4)c3)cc2)cc1	3.12	-0.28
O=C(NNc1ccccn1)c1ccccn1	0.74	0.02
CNC(=O)c1cnc(N2CCC[C@H](N)C2)nc1Nc1cc(C(C)C)nc(C(C)C)c1	-0.82	-3.52
O=C(Nc1c[nH]nc1C(=O)NC1CCNCC1)c1cc(F)cc(F)c1	-3.15	0.46
CC(C)(C)OC(=O)Nc1ccc(CNc2nccc(Nc3cc(C(=O)OC(C)(C)C)[nH]n3)n2)cc1	-1.32	1.22
CC(C)Nc1cc(-c2c[nH]c(C(=O)N[C@H](CO)c3cccc(Cl)c3)c2)c(Cl)cn1	0.61	0.33
O=C(NO)c1cnc(NC2(c3ccccc3)CC2)nc1	-1.33	0.35
N#Cc1cc2cc(CN3CCC(Nc4ncnc5sc(CC(F)(F)F)cc45)CC3)ccc2[nH]1	1.21	0.16
CCCNC(=O)[C@H]1O[C@@H]1C(=O)N[C@H](C(=O)N1CCC[C@H]1C(=O)O)[C@@H](C)CC	-2.2	0.07
CS(=O)(=O)c1ncn2c(NCc3c(F)ccc4c3CCO4)ncc(-c3ccc(C4CC4)nc3)c12	-0.81	-0.76
Nc1nc2cc(CC[C@H]3C[C@@H](n4ccc5c(N)ncnc54)[C@H](O)[C@@H]3O)ccc2cc1Br	-0.14	-5.18
COc1cc(Cl)ccc1C1=CN(c2ccc(-c3ccccc3OC)cc2)C2=NCCCN12	-0.95	-1.01
O=C1C(=O)N(Cc2ccccc2)c2ccc(S(=O)(=O)N3CCC[C@H]3COc3ccc(C(F)(F)F)cc3)cc21	-2.14	1.01
CCNC(=O)/C=C/c1cccc(Br)c1	-1.37	-0.4
COc1ccc(-c2c(-c3ccc(C#N)c(F)c3)nc(N3CCC(N)CC3)n(C)c2=O)cc1F	1.09	0.16
O=c1[nH]ccc2cc(F)c(NS(=O)(=O)c3ccc(N4CC[C@@H](O)C4)s3)cc12	-1.14	0.54
Cn1cc(-c2ccncc2)c(-c2ccc(OCc3ccc4ccccc4n3)cc2)n1	0.25	0.48
Cc1cc(-c2ccccc2)cc(C(=O)NNS(=O)(=O)c2ccccc2)c1F	-1.3	0
Cc1ncsc1-c1ccc([C@H](C)NC(=O)[C@@H]2C[C@@H](O)CN2C(=O)[C@@H](NC(=O)COCCCOCCNC(=O)C[C@@H]2N=C(c3ccc(Cl)cc3)c3c(sc(C)c3C)-n3c(C)nnc32)C(C)(C)C)cc1	-1.73	-0.49
CCc1c(-c2ccccc2)c(-c2ccccc2)nn1-c1ccccc1-c1cccc(OCC(=O)O)c1	-3.01	-1.61
CS(=O)(=O)c1ccc(Oc2cc(F)cc(C#N)c2)c2c1[C@H](O)[C@H](F)[C@@H]2F	2.16	0.61

SMILES	ΔTm [1] [°C]	ΔTm [2] [°C]
COc1cc(C(=O)NCC2(N(C)C)CCCC2)cc(OC)c1OCc1ccccc1	2.2	0.12
CC(C)[C@@H]1C(=O)N(S(C)(=O)=O)[C@@H]2CCN(C(=O)/C=C/CN3CCCCC3)[C@H]21	-1.67	0.49
COC(=O)CC[C@H](NC(=O)[C@H](C)NC(=O)OCc1ccccc1)C(=O)N[C@H](C(=O)N[C@@H](CC(=O)OC)C(=O)CF)C(C)C (Cbz-AE(OMe)VD(OMe)-CH2F)	-0.82	0.54
CCCSc1nc(N[C@@H]2C[C@H]2c2ccc(F)c(F)c2)c2nnn([C@@H]3C[C@H](OCCO)[C@@H](O)[C@H]3O)c2n1	0.55	-0.32
CCCOC(=O)N1CCN(C(=O)c2ccc3c(Cl)cc(-c4ccc(C5(N)CC5)cc4)nc3c2)C[C@H]1C	-1.27	-0.58
O=C(NCC1CCOCC1)c1n[nH]cc1NC(=O)c1c(F)cccc1F	-1.34	0.69
CC(c1cccc2ccccc12)n1cnc2c(=O)[nH]c(Cc3ccccc3)nc21 (configuration not stated)	-0.65	-1.64
CN1CC(=O)N2[C@H](c3ccc4c(c3)OCO4)c3[nH]c4ccccc4c3C[C@@H]2C1=O	0.06	-0.7
N#Cc1ccc(N2N=C3c4ccc(C(=O)O)cc4CC[C@@H]3[C@@H]2C2CCCC2)cc1Cl	-8.37	-1.06
CCCCCn1c(C)c(C(=O)c2cccc3ccccc23)c2ccccc21	2.08	0.39
O=C(Nc1ccc2[nH]nc(-c3ccncc3)c2c1)[C@@H]1CCN(CC(=O)N2CCN(c3ccc(-c4ncccn4)cc3)CC2)C1	-0.34	0.95
CNC(=O)O[C@H]1COc2ccc(N3CCN(C4COC4)CC3)cc2[C@@H]1NC(=O)c1ccc(F)cc1	-1.56	0.9
O=C(c1cc(O)c(O)c([N+](=O)[O-])c1)c1ccccc1F	1.4	-0.06
CCCCN(Cc1ccc(C(=O)NO)cc1)C(=O)Nc1ccccc1	-0.92	-0.44
CNc1nccc(CN([C@H]2CC[C@H](N)CC2)S(=O)(=O)c2ccc(S(=O)(=O)N(Cc3ccc(Cl)cc3)C3CCCC3)cc2)n1	-1.21	-1.14
CN(CCCN1c2ccccc2CCc2ccccc21)CC(=O)c1ccc(Cl)cc1	-0.12	0.53
O=C(C[C@@H](C(F)F)n1ccc(F)n1)N1CCC(O)(Cn2cnc3c(cnn3-c3ccc(F)cc3)c2=O)CC1	0.9	0.2
COc1ccc(/C=C/C(=O)NO)c(-c2ccc(-c3ccccc3)cc2)c1	-5.43	-5.03
Cc1ccc2[nH]c3c(c2c1)CCCC3C(N)=O (configuration not stated)	0.79	0.03
COCCOCCn1nc2c(c1C)-c1c(Cl)ccc3c1c(C)c(C(=O)O)n3CCCOc1cc(cc3c(F)c(Cl)ccc13)CCc1cc(nn1C)CSC2	0	-5.22
COc1cc2c(NCC3CCN(C)CC3)cc(-c3ccc(C)o3)nc2cc1OCCCN1CCCC1	-0.88	0.16

SMILES	ΔTm [1] [°C]	ΔTm [2] [°C]
C[C@H](c1nc2c(cnn2C2CCOCC2)c(=O)[nH]1)N1CC(Oc2ccccc2)C1	2.25	-0.05
Cc1cc(C)nc(SCC(=O)Nc2ncc(Cc3cccc4ccccc34)s2)n1	3	-1.85
Cc1cc(C)c(CNC(=O)c2cc(-c3ccc(N4CCN(C)CC4)nc3)cc3c2c(C)cn3C(C)C)c(=O)[nH]1	-1.27	0.85
Cc1cc(S(C)(=O)=O)c(S(C)(=O)=O)cc1C(=O)NC(=N)N	2.74	0
N#Cc1cc(F)cc(Oc2ccc3c(c2C(F)F)[C@@H](O)C(F)(F)S3(=O)=O)c1	2.23	-0.59
CCOc1ccc(Cc2cc([C@]34OC[C@](CO)(O3)[C@@H](O)[C@H](O)[C@H]4O)ccc2Cl)cc1	0.95	0.47
CC(=O)N1CCC(Nc2cc(C(=O)NC[C@H](O)CN3CCc4ccccc4C3)ncn2)CC1	-1.13	0.28
CCC(CC)(NC(=O)C(C)C)C(=O)N[C@@H](CCCNC(=N)N)C(=O)NC1(C(=O)NC(c2ccc(F)cc2)c2ccc(F)cc2)CCCC1	-0.95	-3.44
C[C@H]1CCCN1Cc1nc2cc(NC(=O)c3ccc4c(cnn4C)c3)ccc2[nH]1	-1.47	0.51
CCNC(=O)c1cc2c(-c3cc(C(C)(C)O)ccc3Oc3c(C)cc(F)cc3C)cn(C)c(=O)c2[nH]1	1.94	0.28
Nc1cc(F)ccc1NC(=O)c1ccc(CNC(=O)/C=C/c2cccnc2)cc1	-0.89	0.58
Cc1noc(C)c1-c1cc(Cl)c(Nc2ccccc2C(=O)O)c(Cl)c1	-0.15	0.17
O=C(N1CCCC[C@H]1Cc1ccccc1)n1cc(-c2ccc(-c3ccccc3)cc2)nn1	1	0.8
O=C(NCc1ccc(Cl)cc1)C1CCN(S(=O)(=O)c2cc(Cl)cc(Cl)c2)CC1	1.09	-0.34
Cc1cc(C(=O)CN2CCC(O)CC2)c(C)n1-c1ccc(C#N)cc1	1.04	-0.17
COc1cc(Oc2ccnc3cc(OC)c(OC)cc23)ccc1NC(=O)NC(C)c1nccs1 (configuration not stated)	-1.23	-3.29
Cc1ccnc(NS(=O)(=O)c2ccc(NC(=O)Nc3ccc(S(=O)(=O)Nc4nccc(C)n4)cc3)cc2)n1	0.27	-0.47
COC[C@@H]1CCCN1S(=O)(=O)c1ccc2c(c1)C(=O)C(=O)N2	-0.85	0.48
COCc1nc(C(F)(F)F)[nH]c1-c1cc(C(=O)N2CC(c3ccc(C#N)cc3)C2)c(C)cc1C	1.19	0.03

From ChEMBL document CHEMBL5724796, “Tm Shift (DSF) assay results for EUbOPEN Chemogenomics Library” (2024)
